Laboratory results published in PMC6616128, “Liquiritin, as a Natural Inhibitor of AKR1C1, Could Interfere With the Progesterone Metabolism” (Frontiers in Physiology, 2019).
Where a chain is given by its changes, count along the chain named. Where two headings read alike, the source gives them in different places.

What was measured:
AKR1C1 [1] = target: T1, AKR1C1 (Homo sapiens, UniProt Q04828); assay: Enzyme activity (NADPH) assay with s-tetralol, recombinant GST-AKR1C1; type: biochemical; parameters: made in house; host or cells: Escherichia coli JM109;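 further: GST-fused AKR1C1 expressed in E. coli and purified by glutathione affinity, control wells received DMSO instead of compound, duplicate samples from a single experiment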
T1 sequence (Q04828 1-323): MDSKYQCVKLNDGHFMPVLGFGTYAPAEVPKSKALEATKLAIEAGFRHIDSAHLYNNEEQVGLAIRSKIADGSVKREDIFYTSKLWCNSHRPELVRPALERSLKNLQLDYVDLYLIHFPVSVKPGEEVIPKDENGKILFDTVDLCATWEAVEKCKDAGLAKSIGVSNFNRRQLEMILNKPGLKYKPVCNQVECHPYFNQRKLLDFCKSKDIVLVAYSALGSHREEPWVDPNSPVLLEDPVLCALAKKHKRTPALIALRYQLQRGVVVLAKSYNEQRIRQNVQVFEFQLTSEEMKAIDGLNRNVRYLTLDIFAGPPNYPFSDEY
Method: GST-tagged recombinant AKR1C isoforms expressed JM109 was grown in Luria-Bertani broth (100 μg⋅ml-1 ampicillin, pH = 7.0) at 37°C with orbital shaking at 220 rpm. When cells achieved an OD600 nm between 0.4 and 0.6, 0.3 mM final concentration of isopropyl β-D-1-thiogalactopyranoside (IPTG) was added to the cultures and incubated for an additional 12 h at 25°C. Cells were harvested by centrifugation at 8000 g for 10 min, and the cell pellets were stored at -80°C for storage. The pellets were resuspended in 1 × PBS, pH = 7.4 and lysed by ultrasonication at ice-cold temperature using an UH-03 union instrument. The purification of glutathione-S-transferase (GST)-fusion AKR1C1, AKR1C2, and AKR1C3 were then carried out using ÄKTA systems from GE Healthcare as described in Handbook. The recombinant proteins were eluted in 50 mM Tris–HCl (pH = 8.0) with 20 mM reduced glutathione, fresh preparedly. Protein concentrations were determined using the Bradford protein assay kit. All proteins were aliquoted and stored at -80°C containing 20% glycerol.
(§1) To screen for the indicated inhibitor, the assay mixture was added with additional DMSO or 2 μM compounds. […] The inhibition patterns were determined by fitting initial velocity and inhibitor concentration into inhibition models using Graphpad Prism 6.0. All inhibition data were obtained from single experiments, with samples conducted in duplicate.
Firstly, we overexpressed recombinant human AKR1C in E. coli in the form of a GST-fusion protein, and then purified it by affinity chromatography on glutathione-Sepharose.
To screen for the inhibitors of AKR1C1, we developed a readily accessible indirect NADPH generating-based assay that can be used for high-throughput inhibitors screening. […] Wells were included containing enzyme and no inhibitor or 2 μM inhibitor.

AKR1C1 [2] = target: T1, AKR1C1; assay: Progesterone metabolism in HEC-1-B cells transfected with AKR1C1 plasmid; type: cell-based; parameters: expressed in transfected cells; host or cells: HEC-1-B cells; settings: 50 μM compound, 5 μM progesterone, 6 h
Method: HEC-1-B cell line was purchased from the Cell Bank of the Chinese Academy of Sciences (Shanghai, China). HEC-1-B cell was cultured in DMEM (Gibco, Grand Island, New York, United States) supplemented with 10% fetal bovine serum at 37°C in a 5% CO2 incubator. In all experiments, the cells were used at passages 4 to 10. The cells were transfected with AKR1C1 plasmid using jet PRIME reagent (Polyplus) according to manufacturer’s instructions. […] The culture media were collected immediately and 6 h later. […] A LC-20A High Performance liquid chromatography (Shimadzu, Japan) with UV detector was used for analyzing progesterone cultured from the cells. […] The mobile phase used was a mixture of mobile phase A and mobile phase B in an isocratic program as 3:7 running on an Agilent HC C18 column (150 mm × 4.6 mm, 5 μm particle size) at a constant temperature of 35°C. The flow rate was 1.0 mL/min and the detection wavelength was 245 nm. The whole analytical period was 10 min for each sample. The standard (progesterone) was dissolved in methanol. […]
Therefore, we choose to transfect cells with AKR1C1 gene for cellular study. […] Each experiment was repeated three times and the differences among means were significant determined by Student t-text (^∗p < 0.05; ^∗∗p < 0.01; ^∗∗∗p < 0.001).

recombinant AKR1C2 = target: T2, recombinant AKR1C2 (Homo sapiens, UniProt P52895); assay: Enzyme activity (NADPH) assay with s-tetralol, recombinant GST-AKR1C2; type: biochemical; settings: s-tetralol 103.30 μM as substrate
T2 construct: made in house; host or cells: Escherichia coli JM109
T2 sequence (P52895 1-323): T1 sequence (Q04828 1-323) with T38V, R47H, L54V, C87S, V151M, R170H, Q172L
Method: (§2) Protein concentrations were determined using the Bradford protein assay kit.
as §1
(§3) Each experiment was repeated three times and the differences among means were significant determined by Student t-text (^∗p < 0.05; ^∗∗p < 0.01; ^∗∗∗p < 0.001).

recombinant AKR1C3 = target: T3, recombinant AKR1C3 (Homo sapiens, UniProt P42330); assay: biochemical
T3 sequence (P42330 1-323): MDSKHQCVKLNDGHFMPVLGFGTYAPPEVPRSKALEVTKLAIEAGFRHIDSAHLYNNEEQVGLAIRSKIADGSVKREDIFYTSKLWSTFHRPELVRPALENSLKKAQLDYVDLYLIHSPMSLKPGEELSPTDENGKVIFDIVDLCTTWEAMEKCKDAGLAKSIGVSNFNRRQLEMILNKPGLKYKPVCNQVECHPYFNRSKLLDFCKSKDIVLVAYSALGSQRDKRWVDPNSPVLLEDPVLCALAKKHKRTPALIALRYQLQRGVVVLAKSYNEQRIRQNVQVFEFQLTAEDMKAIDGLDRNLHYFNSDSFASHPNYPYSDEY
Method: as §2, §1, §3

With `O=C1C[C@@H](c2ccc(O[C@@H]3O[C@H](CO)[C@@H](O)[C@H](O)[C@H]3O)cc2)Oc2cc(O)ccc21` [Liquiritin] the remaining activity at 2 µM (AKR1C1 [1]; 2 μM compound, Figure 1A, read-out: % Enzyme Activity) was 31%, the slope (AKR1C1 [1]; 2 μM compound, Supplementary Table 1, CON 0.0122) was 0.003777 and the enzyme activity (AKR1C1 [1]; 2 μM compound, Supplementary Table 1, CON 192.295568) was 59.5351 nmol/min/mg. For the same molecule, the remaining activity at 2 µM (AKR1C1 [1]; 2 μM compound, Supplementary Table 1, CON = 1, read-out: ratio (activity relative to CON)) was 31%, the inhibition at 2 µM (AKR1C1 [1]; 2 μM compound, Supplementary Table 1, read-out: % inhibition) was 69% and the inhibition at 2 µM (AKR1C1 [1]; 2 μM compound, text on Figure 1A, read-out: inhibitory effect over AKR1C1 enzyme activity (% inhibition)) was 34%. The inhibition pattern (AKR1C1 [1]; s-tetralol concentration variation) was “competitive inhibitor”, the “IC50 ratio 1C1/1C2” value (AKR1C1 [1]; selectivity AKR1C1 vs AKR1C2) was 1.03 and the “IC50 ratio 1C1/1C3” value (AKR1C1 [1]; selectivity AKR1C1 vs AKR1C3) was 0.17. For the same molecule, the inhibition at 50 µM (AKR1C1 [2]) was 85%, the IC50 (recombinant AKR1C2) was 610 ± 50 nM and the IC50 (recombinant AKR1C3) was 3720 ± 90 nM.
